Parameters: species or system patient
Details: in vivo
Description: An ATP standard reagent was prepared by dissolving sodium salt of ATP in 25 mM HEPES buffer (pH7.75) at a concentration of 2×10^−6M.
Two-hundreds μl of a urine sample obtained from a patient suffering from renal dysfunction who received cisplatin administration was added and reacted with 200 μl of the ATP standard reagent prepared as described above at 37° C. for 30 minutes.
The solution was 10-fold diluted with 20 mM phosphate buffer (pH7.5), and 200 μl of the diluted solution was transferred into a test tube for ATP measurement. Then, 100 μl of luciferin-luciferase luminescent reagent which had been prepared by dissolving the freeze-dried luminescent reagent (included in ATP assay kit “CheckLite™” available from Kikkoman Corporation) in a solution for dissolving the reagent (also included in the kit) was added to the solution in the tube. The luminescent level based on the ATP level remaining after the reaction was immediately determined using Lumitester K-210.
On the other hand, the luminescent level corresponding to the ATP level in a urine sample before the reaction was determined in the same matter.
Diagnosis of renal dysfunction by ATP method was performed by calculating the ATP index (residual ATP %) according to the equation below and determining whether the subject is a patient with renal dysfunction S or a healthy individual R according to the following criteria. […]

For `N.N.[Cl][Pt][Cl]` [cisplatin], the “residual ATP % in urine sample (ATP index)” value was “decreases to the minimum”.

— patent publication US6569637B1, “Diagnostic reagents for renal function disorders and method for analyzing urine samples” (Kikkoman Corporation, priority 1997, dated 2003)
